This note sets out measurements from patent US10695406B2, “Modulation of cellular stress using a B-cell oxidative and/or endoplasmic reticulum stress inhibitor and a targeting agent” (THE UNIVERSITY OF QUEENSLAND, priority 2014, dated 2020).

The subject of test [1] is MIN6N8 cells. Briefly: ROS and NO (DHE, DCFDA, Griess assay) in MIN6N8 cells. Format: cell-based, murine. Particulars: for IL-23 induced oxidation of dihydroethidium (DHE): 50 ng/mL. On the procedure: Activation of ATF6 was assessed as follows: the area in pixels per square millimeter co-stained ATF6 and DAPI (blue and green), and total ATF6 staining (green) was determined in 5 fields of view for each section (n=6 for each condition) using IMAGEJ software version 1.45s. Data are presented as the percentage of ATF6 and DAPI co-fluorescence to the total ATF6 fluorescence. Phosphorylation of Ser-51 of eiF2 α was determined by an AlphaScreen assay as per the manufacturer's instructions (PERKIN-ELMER). The Griess reagent method was performed according to the manufacturer's instructions (MOLECULAR PROBES) to assess the intracellular levels of nitric oxide. 5-(and -6-)-carboxy-2,7-dichlorofluorescein diacetate (DCFDA) assay was used to determine the intracellular levels of H2O2 as previously described (Sakon et al., 2003). Cells were treated with glucose or recombinant cytokines at the concentrations indicated in the figure legends, or with 5 μM thapsigargin (SIGMA-ALDRICH) or 10 μg/mL tunicamycin (SIGMA-ALDRICH) or 0.1-0.5 mM Palmitate (SIGMA-ALDRICH) for the times indicated in the legends. ROS was […] using the dihydroethidium (DHE) fluorescent cell-permeable probe (SIGMA-ALDRICH). MIN6N8 cells plated at 2×10^6/mL were incubated with 3 μM DHE and subsequently treated with DMSO (control), 50 ng/mL IL-23 for 30 minutes±[…] IL-22 at the same time or 30 minutes prior to IL-23.
To determine whether IL-22 was sufficient to prevent the increase in oxidative stress caused by known stressors, for example dihydroethidium (DHE), MIN6N8 cells were exposed to 50 ng/mL IL-23 for 30 minutes±50 ng/mL IL-22 at the same time, or 30 minutes prior to the IL-23 treatment. Superoxide generation was measured using DHE, which fluoresces red and binds DNA after oxidation. Time-lapse imaging (3 frames/min for 30 minutes) was utilized to determine the formation of superoxide (DHE-conversion/fluorescence) in cells after treatment. DAPI fluorescence was captured to visualize nuclei.
The concentration of ROS and NO in MIN6N8 cells treated with 16.6 mM glucose (high glucose), 10 μM H2O2, 0.5 mM palmitic acid or 50 ng/mL cytokines±50 ng/mL IL-22 either at the same time, or 30 minutes prior to the stressor treatment.
(In general: The Griess reaction detects nitrite, a stable product of nitric oxide.)

In test [2] the test system is MIN6N8 cells. Kind of test: Oxidative stress gene expression (RT2 Profiler PCR array, qRT-PCR) in MIN6N8 cells. The class given is cell-based, murine. The conditions noted are these: non-stressed β-cells, 50 ng/mL. How it is done:
Tissue samples were snap-frozen, and homogenized in TRIZOL using FASTPREP (MP BIOMEDICAL). RNA was isolated using High Pure RNA isolation kit (ROCHE), followed by cDNA synthesis using iScript (BIORAD) containing oligo(dT) and random hexamers. QPCR SYBR Green (INVITROGEN) was used for quantitative PCR using a HT7900 (ABI SYSTEMS). RoX was used as a normalization reference. Results were analyzed using SDS software (version 2.3) (ABI SYSTEMS). Primer efficiencies were determined using cDNA dilutions and primer dilutions for the genes of interest. All the data was normalized against the housekeeping gene, Gapdh, and expressed as a fold difference to the mean of relevant control samples.
cDNA from MIN6N8 cells treated with DMSO or 50 ng/mL IL-22 was compared using the oxidative stress RT^2 Profiler PCR Array (QIAGEN, PAMM-065Z). Data were analyzed using RT^2 Profiler PCR Array data analysis software.
Experiments to assess ER and/or oxidative stress, and methods of qRT-PCT and/or quantifying gene expression were performed as described for Example 1. Xbp1 splicing is assessed by qRT-PCR, with normalization versus Gapdh, and expression presented as fold of vehicle-treated control cells.
In general terms: In qPCR the cycle at which signal appears reflects the starting amount.

Test [3] has as its system Murine MIN6N8 cells. Briefly: ERAI-sXBP1 reporter ER stress in MIN6N8 cells with 0.5 mM palmitate. Format: cell-based. Particulars: 15.4 nM, 24 hours, no palmitate. How it is done:
(§1) Cell culture: Murine MIN6N8 cells were tested negative for mycoplasma. Cells were routinely cultured in phenol-red free DMEM (Life Technologies) containing 25 mM glucose (3.4 g/L sodium bicarbonate, 50 U/mL penicillin and streptomycin, 71.5 μM β-mercaptoethanol and 10% heat inactivated fetal bovine serum) and transferred to DMEM as above with 5.5 mM glucose 48 h prior to experimentation. Human LS174T cells were cultured in DMEM containing 10% heat-inactivated fetal bovine serum, 50 U mL^−1 penicillin and streptomycin.
ER Stress Measurement: MIN6N8 cells were transfected with the ERAI reporter plasmid (F-XBP1ΔDBD-venus, using Lipofectamine 2000 according to the manufacturer's instructions. For ERAI there was negligible fluorescence in the absence of ER stressors, but upon induction of ER stress, splicing of XBP1 mRNA by IRE1a results in the translation of Venus but not an active form of XBP1. Fluorescence was measured (excitation: 485 nm; emission: 520 nm) using a POLARstar Omega plate reader and cells were treated 48 h after transfection. […] After 24 h, ERAI-sXBP1 GFP reporter fluorescence was measured.

Test [4] concerns Human LS174T cells. Briefly: Oxidative stress (nitrite, Griess assay) in LS174T cells with 0.5 mM palmitate. The class given is cell-based. The conditions noted are these: human LS174T cells, 0.5 mM palmitate. How it is done:
as §1
The Griess Reagent Kit for Nitrite Determination was performed according to the manufacturer's instructions (Molecular Probes) to assess the intracellular levels of nitrite (the stable metabolite of nitric oxide) using lysates of β-cells prepared in RIPA buffer (150 mM NaCl, 1% NP40, 0.5% sodium deoxycholate, 0.1% SDS, 50 mM Tris, pH 7.5).

For the substance “IL-22: interleukin-22; recombinant murine IL-22 (R&D SYSTEMS) in the mouse experiments”, the “IL-23 induced oxidation of dihydroethidium (DHE)” value is “completely prevented DHE oxidation” in test [1] (30-minute pre-exposure); “reduced the degree of oxidation and the number of cells affected” in test [1] (concomitant exposure). In addition, in test [1] (unstressed cells), the “basal NO production” value is reported as “decreased basal NO production”. Also, the “production/accumulation of ROS and NO” value in test [1] (β-cells exposed to inflammatory cytokines, FFA, tunicamycin or H2O2) was “represses the production/accumulation of ROS and NO”. The “expression of antioxidant genes Gpx5, Prdx5, Sod2 (also Ptgs1, Ptgs2, Cyba)” value in test [2] is “upregulated the antioxidant genes”. Besides, in test [2], the “expression of oxidative stress inducing genes Nos2, Hsp90ab1, Fth1” value was “down-regulates three key oxidative stress inducing genes”. In addition, the “ER stress caused by the protein alone” value in test [3] was “did not cause ER stress”. Further, the “fold higher concentrations required for the same effect as human recombinant IL-22 in suppressing oxidative stress (nitrite)” value in test [4] is on record as about 64 fold.
